According to patent US11897851B2, “Heterocyclic GLP-1 agonists” (Gasherbrum Bio, Inc., priority 2021, dated 2024):
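Note: compounds tested in half-log serial dilution, cAMP detected with cAMP-d2 and anti-cAMP cryptate antibody reagents after 1 h at room temperature.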

The compounds below were run against T1, GLP-1 Receptor (Homo sapiens, UniProt P43220) (assay: GLP-1R agonist cAMP stimulation assay (HEK293/GLP1R/CRE-LUC cells, Cisbio cAMP dynamic 2 kit)). Details: HEK293/CRE-Luc cell line stably expressing the GLP-1 Receptor; 1000 cells/well; 30 min at 37° C.; 0.5 mM IBMX, 0.1% BSA; read-out: GLP1R cAMP Stimulation DR: EC50.
T1 construct: host or cells: HEK293/GLP1R/CRE-LUC (HEK293/CRE-Luc stably expressing the GLP-1 receptor)
T1 sequence (P43220 24-463, species assumed): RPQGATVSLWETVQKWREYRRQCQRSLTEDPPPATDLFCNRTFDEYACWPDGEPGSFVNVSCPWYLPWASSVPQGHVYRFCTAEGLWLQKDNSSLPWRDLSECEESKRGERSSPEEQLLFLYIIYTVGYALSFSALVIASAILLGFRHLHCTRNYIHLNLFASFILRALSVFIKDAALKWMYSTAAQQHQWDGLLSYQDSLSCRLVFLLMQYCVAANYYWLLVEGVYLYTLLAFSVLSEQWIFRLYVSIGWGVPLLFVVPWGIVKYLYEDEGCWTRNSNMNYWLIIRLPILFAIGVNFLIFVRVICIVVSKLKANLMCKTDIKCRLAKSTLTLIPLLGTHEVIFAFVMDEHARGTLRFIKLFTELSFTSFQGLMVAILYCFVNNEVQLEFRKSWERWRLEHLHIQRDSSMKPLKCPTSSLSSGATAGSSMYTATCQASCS
Assay type: cell-based
In the case of Cc1cc(-c2nnc(C(F)(F)F)[nH]2)cnc1CN1CCC(c2cccc3c2OC(C)(c2ccc(Cl)cn2)O3)CC1 (stereo not drawn) [Compound 264, 2-({4-[2-(5-chloropyridin-2-yl)-2-methyl-2H-1,3-benzodioxol-4-yl]piperidin-1-yl}methyl)-3-methyl-5-[5-(trifluoromethyl)-4H-1,2,4-triazol-3-yl]pyridine], the EC50 is reported as 15 nM. Cc1cc(-c2nnc(C(F)(F)F)[nH]2)cnc1CN1CCC(c2cccc3c2OC(C)(c2ccc(Cl)cc2)O3)CC1 (stereo not drawn) [Compound 265, 2-({4-[2-(4-chlorophenyl)-2-methyl-2H-1,3-benzodioxol-4-yl]piperidin-1-yl}methyl)-3-methyl-5-[5-(trifluoromethyl)-4H-1,2,4-triazol-3-yl]pyridine] showed an EC50 of 4.5 nM. Work on CC1(c2ccc(Cl)cc2F)Oc2cccc(C3CCN(Cc4ncc(-c5nnc(C(F)(F)F)[nH]5)cc4CC4CCCS4(=O)=O)CC3)c2O1 (stereo not drawn) [Compound 266, 2-{[2-({4-[2-(4-chloro-2-fluorophenyl)-2-methyl-2H-1,3-benzodioxol-4-yl]piperidin-1-yl}methyl)-5-[5-(trifluoromethyl)-4H-1,2,4-triazol-3-yl]pyridin-3-yl]methyl}-1λ^6-thiolane-1,1-dione] yielded an EC50 of 10 nM. Compound CC1(c2ccc(Cl)cc2F)Oc2cccc(C3CCN(Cc4ncc(-c5nnc(C(F)(F)F)[nH]5)cc4CCS(C)(=O)=O)CC3)c2O1 (stereo not drawn) [Compound 267, 2-({4-[2-(4-chloro-2-fluorophenyl)-2-methyl-2H-1,3-benzodioxol-4-yl]piperidin-1-yl}methyl)-3-(2-methanesulfonylethyl)-5-[5-(trifluoromethyl)-4H-1,2,4-triazol-3-yl]pyridine] has an EC50 of 4.7 nM. Work on COCCc1cc(-c2noc(=O)[nH]2)cnc1CN1CCC(c2cccc3c2OC(C)(c2ccc(Cl)cc2F)O3)CC1 (stereo not drawn) [Compound 268, 3-[6-({4-[2-(4-chloro-2-fluorophenyl)-2-methyl-2H-1,3-benzodioxol-4-yl]piperidin-1-yl}methyl)-5-(2-methoxyethyl)pyridin-3-yl]-4,5-dihydro-1,2,4-oxadiazol-5-one] yielded an EC50 of 7.7 nM. With C[C@]1(c2ccc(Cl)cn2)Oc2cccc(C3CCN(Cc4ncc(-c5nnc(C(F)(F)F)[nH]5)cc4CC4(C#N)CC4)CC3)c2O1 [Compound 277, 1-{[2-({4-[(2S)-2-(5-chloropyridin-2-yl)-2-methyl-2H-1,3-benzodioxol-4-yl]piperidin-1-yl}methyl)-5-[5-(trifluoromethyl)-4H-1,2,4-triazol-3-yl]pyridin-3-yl]methyl}cyclopropane-1-carbonitrile] the EC50 was 0.023 nM. With C[C@]1(c2ccc(Cl)cc2F)Oc2cccc(C3CCN(Cc4ncc(-c5nnc(C(F)(F)F)[nH]5)cc4C4CCOC4)CC3)c2O1 (stereo partly drawn) [Compound 282, 2-({4-[(2S)-2-(4-chloro-2-fluorophenyl)-2-methyl-2H-1,3-benzodioxol-4-yl]piperidin-1-yl}methyl)-3-(oxolan-3-yl)-5-[5-(trifluoromethyl)-4H-1,2,4-triazol-3-yl]pyridine] the EC50 was 3.7 nM. Work on Cc1cc(-c2nnc(C(F)(F)F)[nH]2)cnc1CN1CCC(c2cccc3c2O[C@@](C)(c2ccc(C#N)cc2F)O3)CC1 [Compound 286, 3-fluoro-4-[(2S)-2-methyl-4-[1-({3-methyl-5-[5-(trifluoromethyl)-4H-1,2,4-triazol-3-yl]pyridin-2-yl}methyl)piperidin-4-yl]-2H-1,3-benzodioxol-2-yl]benzonitrile] yielded an EC50 of 1.38 nM. Work on CCOCCc1cc(-c2nnc(C(F)(F)F)[nH]2)cnc1CN1CCC(c2cccc3c2O[C@@](C)(c2ccc(Cl)cc2F)O3)CC1 [Compound 287, 2-({4-[(2S)-2-(4-chloro-2-fluorophenyl)-2-methyl-2H-1,3-benzodioxol-4-yl]piperidin-1-yl}methyl)-3-(2-ethoxyethyl)-5-[5-(trifluoromethyl)-4H-1,2,4-triazol-3-yl]pyridine] yielded an EC50 of 0.87 nM.
